Assay results published in ChEMBL document CHEMBL5257024, “Synthesis of α,β-Unsaturated Carbonyl-Based Compounds, Oxime and Oxime Ether Analogs as Potential Anticancer Agents for Overcoming Cancer Multidrug Resistance by Modulation of Efflux Pumps in Tumor Cells” (J Med Chem, 2016).

Legend:
[1] = Cytotoxicity against human MCF-10A cells assessed as cell viability incubated for 96 hrs by MTT assay; type: toxicity, cell-based; parameters: concentration or dose not given beside the values; details: read-out: Activity
MIA PaCa-2 = assay: Antiproliferative activity against human MIA PaCa-2 cells assessed as inhibition of cell growth incubated for 48 hrs by propidium iodide staining based fluorometer assay; type: functional; details: MIA PaCa-2, 48 h
MCF7 = assay: Antiproliferative activity against human MCF7 cells assessed as inhibition of cell growth incubated for 48 hrs by propidium iodide staining based fluorometer assay; type: functional; details: MCF7, 48 h
A549 = assay: Antiproliferative activity against human A549 cells assessed as inhibition of cell growth incubated for 48 hrs by propidium iodide staining based fluorometer assay; type: functional; details: A549, 48 h
PANC-1 = assay: cells; details: Homo sapiens, PANC-1, 48 h
Description: Antiproliferative activity against human PANC-1 cells assessed as inhibition of cell growth incubated for 48 hrs by propidium iodide staining based fluorometer assay

HT-29 = assay: cells; details: Homo sapiens, HT-29, 48 h
Description: Antiproliferative activity against human HT-29 cells assessed as inhibition of cell growth incubated for 48 hrs by propidium iodide staining based fluorometer assay

NCI-H460 = assay: cells; details: Homo sapiens, NCI-H460, 48 h
Description: Antiproliferative activity against human NCI-H460 cells assessed as inhibition of cell growth incubated for 48 hrs by propidium iodide staining based fluorometer assay

PC-3 = assay: cells; details: Homo sapiens, PC-3, 48 h
Description: Antiproliferative activity against human PC-3 cells assessed as inhibition of cell growth incubated for 48 hrs by propidium iodide staining based fluorometer assay

| SMILES | viability at 96 h [1] [%] | IC50 (MIA PaCa-2) [µM] | IC50 (MCF7) [µM] | IC50 (A549) [µM] | IC50 (PANC-1) [µM] | IC50 (HT-29) [µM] | IC50 (NCI-H460) [µM] | IC50 (PC-3) [µM] |
| --- | --- | --- | --- | --- | --- | --- | --- | --- |
| COc1cccc(/C=C2\CCc3ccc(Br)cc3C2=O)c1Cl | 94 | 12.8 | 14.1 | 13.3 | 13.4 | 14 | 12.9 | 13.7 |
| COc1cc(/C=C2\CCc3ccc([N+](=O)[O-])cc3C2=O)c(Br)c(OC)c1OC | 88 | 1.5 | 1.4 | 1.3 | 1.2 | 1.4 | 1.3 | 1.4 |
| COc1cc2c(cc1OC)C(=O)/C(=C/c1cc(OC)c(OC)c(OC)c1Br)CC2 | 98 | 2.4 | 2.8 | 2.2 | 2.6 | 2.8 | 2.2 | 2 |
| COc1ccc(/C=C2\COC/C(=C\c3ccc(OC)c(OC)c3Cl)C2=O)c(Cl)c1OC | 89 | 5.2 | 5.6 | 5.8 | 5.8 | 5.1 | 5.3 | 5.1 |
| COc1ccc(/C=C2\CCC/C(=C\c3ccc(OC)c(OC)c3Cl)C2=O)c(Cl)c1OC | 90 | 4.2 | 4.7 | 3.9 | 4.2 | 3.7 | 4.1 | 5.2 |
| COc1cc(/C=C2\CC(C(C)C)C/C(=C\c3cc(OC)c(OC)c(OC)c3Br)C2=O)c(Br)c(OC)c1OC (configuration not stated) | 89 | 7.5 | 8.1 | 7.6 | 7.2 | 6.7 | 7.4 | 7.2 |
| COc1cccc(/C=C2\CCc3ccc([N+](=O)[O-])cc3C2=O)c1Cl | 95 | 3.4 | 3.3 | 3.6 | 3.5 | 3.5 | 3.1 | 3.1 |
| COc1ccc(/C=C2\CCc3ccc(F)cc3C2=O)c(Cl)c1OC | 95 | 9.6 | 9.8 | 10.9 | 9.8 | 9.4 | 10.6 | 9.3 |
| COc1cc(/C=C2\CCC/C(=C\c3cc(OC)c(OC)c(OC)c3Br)C2=O)c(Br)c(OC)c1OC | 89 | 2.6 | 3.1 | 2.6 | 2.4 | 2 | 2.6 | 2.9 |
| COc1ccc(/C=C2\CC(C)C/C(=C\c3ccc(OC)c(OC)c3Cl)C2=O)c(Cl)c1OC (configuration not stated) | 94 | 3 | 3.2 | 4.4 | 3.2 | 2.9 | 2.9 | 3.7 |
| CCN(CC)CCO/N=C1\C(=C\c2cc(OC)c(OC)c(OC)c2Br)CCc2ccc([N+](=O)[O-])cc21 | 97 | 4 | 4.9 | 4.3 | 4.2 | 4.5 | 4.6 | 4.4 |
| COc1cccc(/C=C2\CCc3c(O)cccc3C2=O)c1Cl | 96 | 4.9 | 4.4 | 4.4 | 4.2 | 5.1 | 4.9 | 5.2 |
| COc1cc(/C=C2\COC/C(=C\c3cc(OC)c(OC)c(OC)c3Br)C2=O)c(Br)c(OC)c1OC | 92 | 4.6 | 4.3 | 4.1 | 4.9 | 4.2 | 5 | 4.6 |
| COc1ccc(/C=C2\CN(Cc3ccccc3)C/C(=C\c3ccc(OC)c(OC)c3Cl)C2=O)c(Cl)c1OC | 89 | 15.5 | 15.4 | 16.2 | 15.6 | 10.3 | 13.9 | 15.7 |
| COc1ccc(/C=C2\CC(C)c3ccccc3C2=O)c(Cl)c1OC (configuration not stated) | 99 | 7.2 | 7.2 | 7.7 | 7.5 | 7.2 | 7.9 | 7.3 |
| COc1ccc(/C=C2\CCc3ccc(Br)cc3C2=O)c(Cl)c1OC | 92 | 10.6 | 11.1 | 10.3 | 10.8 | 10.5 | 11.1 | 10.4 |
| COc1ccc(/C=C2\CCc3ccc([N+](=O)[O-])cc3C2=O)c(Cl)c1OC | 90 | 1.7 | 2.3 | 1.9 | 1.9 | 1.9 | 1.8 | 1.6 |

| SMILES | viability at 96 h [1] [%] | IC50 (MIA PaCa-2) [µM] | IC50 (MCF7) [µM] | IC50 (A549) [µM] | IC50 (PANC-1) [µM] | IC50 (HT-29) [µM] | IC50 (NCI-H460) [µM] | IC50 (PC-3) [µM] |
| --- | --- | --- | --- | --- | --- | --- | --- | --- |
| COc1cccc(/C=C2\CCc3c(OC)cccc3C2=O)c1Cl | 93 | 8.7 | 9 | 6.4 | 8.5 | 8.4 | 9 | 8.4 |
| COc1ccc(/C=C2\CC(C(C)C)C/C(=C\c3ccc(OC)c(OC)c3Cl)C2=O)c(Cl)c1OC (configuration not stated) | 87 | 11.8 | 11.9 | 12.9 | 12.2 | 13.2 | 15.3 | 12.6 |
| COc1cccc(/C=C2\COC/C(=C\c3cccc(OC)c3Cl)C2=O)c1Cl | 88 | 8.7 | 7.3 | 8.4 | 8.9 | 8.8 | 7.4 | 8.3 |
| COc1cccc(/C=C2\CCc3ccc(Cl)cc3C2=O)c1Cl | 94 | 12.8 | 14.1 | 13.3 | 12.4 | 12.6 | 13.3 | 13.7 |
| COc1cccc(/C=C2\CCc3c(OC)ccc(OC)c3C2=O)c1Cl | 98 | 6.7 | 7.2 | 8.8 | 7.4 | 7.1 | 7.9 | 7.2 |
| COc1ccc(OC)c2c1CC/C(=C\c1ccc(OC)c(OC)c1Cl)C2=O | 90 | 3.9 | 4.1 | 4.3 | 4.3 | 4 | 3.8 | 4.5 |
| CCN(CC)CCO/N=C1\C(=C\c2cc(OC)c(OC)c(OC)c2Br)CCc2c(OC)ccc(OC)c21 | 95 | 2.1 | 2.2 | 2.1 | 2.7 | 2.9 | 2.9 | 2.2 |
| CCN(CC)CCO/N=C1\C(=C\c2ccc(OC)c(OC)c2Cl)CCc2ccc([N+](=O)[O-])cc21 | 94 | 6.6 | 6.6 | 7.1 | 6.9 | 7 | 7.2 | 6.4 |
| COc1ccc(/C=C2\CCc3ccc(Cl)cc3C2=O)c(Cl)c1OC | 94 | 9.5 | 9.1 | 10.7 | 10.5 | 10.9 | 10.6 | 10.8 |
| COc1ccc2c(c1)CC/C(=C\c1ccc(OC)c(OC)c1Cl)C2=O | 89 | 2.3 | 2.6 | 2.9 | 2.1 | 2.7 | 2.6 | 2 |
| COc1cc(/C=C2\CC(C)c3ccccc3C2=O)c(Br)c(OC)c1OC (configuration not stated) | 92 | 2.3 | 2.1 | 2.6 | 2.4 | 2.9 | 2.2 | 2.4 |
| COc1cccc(/C=C2\CC(C)c3ccccc3C2=O)c1Cl (configuration not stated) | 98 | 9.8 | 8.8 | 8.7 | 8.3 | 8.4 | 9.6 | 9.9 |
| COc1cc2c(cc1OC)C(=O)/C(=C/c1ccc(OC)c(OC)c1Cl)CC2 | 97 | 5 | 5.4 | 5.4 | 5.4 | 5.2 | 5.8 | 5.2 |
| COc1cc2c(cc1OC)C(=O)/C(=C/c1cccc(OC)c1Cl)CC2 | 91 | 9.9 | 10.5 | 9.2 | 9.5 | 10.4 | 9.2 | 9.2 |
| COc1ccc(/C=C2\CCc3ccccc3C2=O)c(Cl)c1OC | 96 | 23.2 | 20.5 | 23.3 | 24.5 | 26.5 | 22.9 | 23.4 |
| COc1cccc2c1CC/C(=C\c1cc(OC)c(OC)c(OC)c1Br)C2=O | 94 | 4.6 | 5.7 | 4.5 | 4.2 | 3.9 | 4.7 | 3.9 |
| COc1cc(/C=C2\CCc3ccccc3C2=O)c(Br)c(OC)c1OC | 94 | 23.7 | 20.4 | 22.6 | 21.3 | 21.2 | 22.2 | 22 |
